Drawing on patent US20170305894A1, “PPAR AGONISTS, COMPOUNDS, PHARMACEUTICAL COMPOSITIONS, AND METHODS OF USE THEREOF” (priority 2014, published 2017), this text covers EC50 for 16 compounds.

Where two headings read alike, the source gives them in different places.

The target of one test is T1, PPARdelta (Homo sapiens, UniProt Q03181).
T1 construct: expressed in transfected cells
T1 sequence (Q03181 1-441): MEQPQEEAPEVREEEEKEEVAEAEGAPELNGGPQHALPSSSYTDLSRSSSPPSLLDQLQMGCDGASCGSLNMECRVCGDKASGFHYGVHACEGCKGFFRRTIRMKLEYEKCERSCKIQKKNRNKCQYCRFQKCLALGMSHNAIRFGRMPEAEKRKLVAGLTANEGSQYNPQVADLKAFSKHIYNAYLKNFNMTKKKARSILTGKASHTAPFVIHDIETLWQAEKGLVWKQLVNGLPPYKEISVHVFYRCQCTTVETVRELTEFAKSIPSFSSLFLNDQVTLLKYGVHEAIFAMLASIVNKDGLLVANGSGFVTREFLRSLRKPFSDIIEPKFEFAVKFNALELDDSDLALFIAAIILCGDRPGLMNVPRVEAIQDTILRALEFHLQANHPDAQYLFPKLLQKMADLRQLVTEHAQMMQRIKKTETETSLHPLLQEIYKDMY
The experiment in a line: NHR Protein Interaction Biosensor assay (PathHunter NHR cell lines, agonist format). Type of test: cell-based. Here is the method:
(2) Nuclear Hormone Receptor (NHR) Assays
PathHunter NHR cell lines were expanded from freezer stocks according to standard procedures. Cells were seeded in a total volume of 20 μL into white walled, 384-well microplates and incubated at 37° C. for the appropriate time prior to testing. Assay media contained charcoal-dextran filtered serum to reduce the level of hormones present.
For agonist determination, cells were incubated with sample to induce response. Intermediate dilution of sample stocks was performed to generate 5× sample in assay buffer. […] Final assay vehicle concentration was 1%.
Microplates were read following signal generation with a PerkinElmer Envision™ instrument for chemiluminescent signal detection.
Compound activity was analyzed using CBIS data analysis suite (ChemInnovation, CA). For agonist mode assays, percentage activity was calculated using the following formula:
% Activity=100%×(mean RLU of test sample−mean RLU of vehicle control)/(mean MAX control ligand−mean RLU of vehicle control).

The next test addresses T2, Human PPARδ (Homo sapiens, UniProt Q03181).
T2 construct: (PPARδ amino acid 128 to C-terminus); expressed in transfected cells; host or cells: CV-1 cells
T2 sequence (Q03181 128-441 limits assumed): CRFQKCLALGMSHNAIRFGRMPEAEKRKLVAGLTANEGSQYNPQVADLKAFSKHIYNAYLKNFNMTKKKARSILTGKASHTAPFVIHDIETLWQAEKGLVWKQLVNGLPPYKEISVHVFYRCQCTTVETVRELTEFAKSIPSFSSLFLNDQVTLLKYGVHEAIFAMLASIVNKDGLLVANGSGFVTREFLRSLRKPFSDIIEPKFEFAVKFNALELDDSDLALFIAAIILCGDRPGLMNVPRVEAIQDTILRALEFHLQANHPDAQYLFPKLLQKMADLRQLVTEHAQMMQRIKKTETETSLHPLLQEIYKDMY
Put plainly: PPARδ activity screen: GAL4-PPARδ LBD luciferase transactivation in CV-1 cells. The format is cell-based. On the procedure: CV-1 cells were grown in DMEM+10% charcoal stripped FCS. Cells were seeded into 384-well plates the day before transfection to give a confluency of 50-80% at transfection. A total of […] containing 0.64 micrograms pCMX-PPARDelta LBD, 0.1 micrograms pCMXβGal, 0.08 micrograms pGLMH2004 reporter and 0.02 micrograms pCMX empty vector was transfected per well using FuGene transfection reagent according to the manufacturer's instructions (Roche). Cells were allowed to express protein for 48 h followed by addition of compound.
Human PPARδ was used to PCR amplify the PPARδ LBD. […] Ensuing fusions were verified by sequencing.
Compounds: All compounds were dissolved in DMSO and diluted 1:1000 upon addition to the cells. Compounds were tested in quadruple in concentrations ranging from 0.001 to 100 μM. Cells were treated with compound for 24 h followed by luciferase assay. Each compound was tested in at least two separate experiments.
The activity of a compound is calculated as fold induction compared to an untreated sample. For each compound the efficacy (maximal activity) is given as a relative activity compared to GW501516, a PPARδ agonist. […] EC50 values were calculated via non-linear regression using GraphPad PRISM (GraphPad Software, San Diego, Calif.).

[1] abbreviates: PathHunter NHR cells, agonist format, read-out: NHR Protein Interaction Biosenor assay, PPARdelta EC50.
[2] abbreviates: CV-1 cells, GAL4-PPARδ LBD luciferase reporter, compound for 24 h, read-out: PPAR delta transactivation EC50.

Consider `C/C(=C\COc1ccccc1Cc1c(C)noc1-c1ccc(-c2ccco2)cc1)CCC(=O)O` [Compound 8o, (E)-6-(2-((5-(4-(furan-2-yl)phenyl)-3-methylisoxazol-4-yl)methyl)phenoxy)-4-methylhex-4-enoic acid], for which the results for the EC50 at PPARdelta and on Human PPARδ were 9.12 nM and 2.9 nM, respectively. Regarding `Cc1cn(Cc2ccccc2OCCCCC(C)(C)C(=O)O)c(-c2ccc(-c3ccco3)cc2)n1` [Compound 8k, 6-(2-((2-(4-(furan-2-yl)phenyl)-4-methyl-1H-imidazol-1-yl)methyl)phenoxy)-2,2-dimethylhexanoic acid], the EC50 on PPARdelta (setting [1]) was determined as 16.5 nM; at Human PPARδ (setting [2]), 58 nM.

Regarding `Cc1nc(-c2ccc(-c3ccco3)cc2)c(Cc2ccccc2OCCCCCC(=O)O)s1` [Compound 8m, 6-(2-((4-(4-(furan-2-yl)phenyl)-2-methylthiazol-5-yl)methyl)phenoxy) hexanoic acid], the results for the EC50 on PPARdelta and at Human PPARδ were 1.27 nM and 18 nM, respectively.

On to `Cc1ccc(-c2ccc(-c3ncc(C)n3Cc3ccccc3OCCCCCC(=O)O)cc2)o1` [Compound 8b, 6-(2-((5-methyl-2-(4-(5-methylfuran-2-yl)phenyl)-1H-imidazol-1-yl)methyl)phenoxy)hexanoic acid], for which the EC50 was determined as 0.58 nM on PPARdelta (setting [1]) and 1.2 nM on Human PPARδ (setting [2]). The like results for `C/C(=C\COc1ccccc1Cn1c(C)cnc1-c1ccc(-c2ccco2)cc1)CCC(=O)O` [Compound 8e, (E)-6-(2-((2-(4-(furan-2-yl)phenyl)-5-methyl-1H-imidazol-1-yl)methyl)phenoxy)-4-methylhex-4-enoic acid] were, in that order, 0.79 nM and 1 nM. As for `Cn1cc(Cc2ccccc2OCCCCCC(=O)O)c(-c2ccc(-c3ccco3)cc2)n1` [Compound 8n, 6-(2-((3-(4-(furan-2-yl)phenyl)-1-methyl-1H-pyrazol-4-yl)methyl)phenoxy)hexanoic acid], the results for the EC50 on PPARdelta and at Human PPARδ were 19.9 nM and 117 nM, respectively. With `Cc1cnc(-c2ccc(C#CC(F)(F)F)cc2)n1Cc1ccccc1OCCCCCC(=O)O` [Compound 8g, 6-(2-((5-methyl-2-(4-(3,3,3-trifluoroprop-1-yn-1-yl)phenyl)-1H-imidazol-1-yl)methyl)phenoxy)hexanoic acid], the EC50 on PPARdelta (setting [1]) was determined as 0.65 nM; on Human PPARδ (setting [2]), 8.3 nM. For the compound `Cc1cn(Cc2ccccc2OCCCCCC(=O)O)c(-c2ccc(-c3ccco3)cc2)n1` [Compound 8i, 6-(2-((2-(4-(furan-2-yl)phenyl)-4-methyl-1H-imidazol-1-yl)methyl)phenoxy) hexanoic acid], the EC50 on PPARdelta was 13.4 nM; on Human PPARδ (setting [2]), 15.7 nM. For the compound `Cc1cnc(-c2ccc(-c3ccco3)cc2)n1Cc1ccccc1CCCCCCC(=O)O` [Compound 8q, 7-(2-((2-(4-(furan-2-yl)phenyl)-5-methyl-1H-imidazol-1-yl)methyl)phenyl)heptanoic acid], the results for the EC50 on PPARdelta (setting [1]) and on Human PPARδ (setting [2]) were 13 nM and 3.1 nM, respectively. With `Cc1cnc(-c2ccc(-c3ccco3)cc2)n1Cc1ccccc1OCCCCC(C)(C)C(=O)O` [Compound 8d, 6-(2-((2-(4-(furan-2-yl)phenyl)-5-methyl-1H-imidazol-1-yl)methyl)phenoxy)-2,2-dimethylhexanoic acid], the EC50 on PPARdelta (setting [1]) stood at 0.84 nM; on Human PPARδ (setting [2]) it was 4.5 nM. With `Cc1cnc(-c2ccc(-c3ccco3)cc2)n1Cc1ccccc1OCCCCCC(=O)O` [Compound 8a, 6-(2-((2-(4-(furan-2-yl)phenyl)-5-methyl-1H-imidazol-1-yl)methyl)phenoxy) hexanoic acid], the EC50 at PPARdelta (setting [1]) was less than 0.51 nM; on Human PPARδ (setting [2]), 0.9 nM. Consider `C/C(=C\COc1ccccc1Cc1c(C)n[nH]c1-c1ccc(-c2ccco2)cc1)CCC(=O)O` [Compound 8p, (E)-6-(2-((5-(4-(furan-2-yl)phenyl)-3-methyl-1H-pyrazol-4-yl)methyl)phenoxy)-4-methylhex-4-enoic acid], for which the EC50 was found to be 4.97 nM on PPARdelta and 1.2 nM at Human PPARδ. Consider `C/C(=C\COc1ccccc1Cn1c(C)cnc1-c1ccc(Cl)nc1)CCC(=O)O` [Compound 8r, (E)-6-(2-((2-(6-chloropyridin-3-yl)-5-methyl-1H-imidazol-1-yl)methyl)phenoxy)-4-methylhex-4-enoic acid], for which the EC50 at Human PPARδ (setting [2]) was 5.5 nM.

`O=C(O)CCCCCOc1ccccc1Cn1ccnc1-c1ccc(-c2ccco2)cc1` [Compound 8l, 6-(2-((2-(4-(furan-2-yl)phenyl)-1H-imidazol-1-yl)methyl)phenoxy)hexanoic acid]: the EC50 on PPARdelta (setting [1]) is 1.28 nM; on Human PPARδ (setting [2]), 9.5 nM. Consider `Cc1cnc(-c2ccc(OC(F)(F)F)cc2)n1Cc1ccccc1OCCCCCC(=O)O` [Compound 8h, 6-(2-((5-methyl-2-(4-(trifluoromethoxy)phenyl)-1H-imidazol-1-yl)methyl)phenoxy)hexanoic acid], for which the EC50 at PPARdelta (setting [1]) was 1.49 nM; at Human PPARδ (setting [2]), 0.94 nM.

`Cc1cn(Cc2ccccc2OCCCCCC(=O)O)c(-c2ccc(-c3ccc(C)o3)cc2)n1` [Compound 8j, 6-(2-((4-methyl-2-(4-(5-methylfuran-2-yl)phenyl)-1H-imidazol-1-yl)methyl)phenoxy)hexanoic acid]: the EC50 at PPARdelta (setting [1]) worked out at 5.01 nM; on Human PPARδ (setting [2]), 56 nM.
